{"source": "patent US6949556B2", "about": "“Acylated 1,2,3,4-tetrahydronaphthyl amines and their use as pharmaceutical agents” (Aventis Pharma Deutschland GmbH, priority 2001, dated 2005)", "data": [{"target": "eNOS promoter", "assay": "Activation of eNOS transcription (eNOS promoter firefly luciferase reporter)", "type": "cell-based", "settings": "EC50 of transcription induction ratio (TIR) vs compound concentration, determined graphically; stably transfected human endothelial cell line, 18 h incubation", "protocol": "Activation of eNOS transcription was measured as described in detail in Li et al. “Activation of protein kinase C alpha and/or epsilon enhances transcription of the human endothelial nitric oxide synthase gene”, Mol. Pharmacol. 1998; 53: 630-637. Briefly, a 3.5 kB long fragment 5′ of the starting codon of the eNOS gene was cloned, sequenced and cloned in firefly luciferase expression plasmids to monitor activation of the eNOS promoter by reporter gene activity. A human endothelial cell line stable transfected and expressing this promoter-reporter construct was used for compound testing. Cells were incubated for 18 h with compounds.\nAll compounds were dissolved in sterile DMSO. A final concentration of 0.5% DMSO in complete medium was allowed. Induction of reporter gene expression in these cells was measured using a standard luciferase assay system (Promega, Cat. No E150) according to the manufacturer's instructions. Luciferase induction in cells incubated with compounds were compared to those incubated with solvent alone. The ratio of both activities (transcription induction ratio, TIR) was plotted as a function of compound concentration. Typically, TIR values started at low concentrations at a ratio of 1, indicating no compound effect, and extended up to a maximum TIR value TIR(max) which indicates the increase of the eNOS transcription. EC50 values of transcription induction ratios as a function of compound concentration were determined graphically.", "units": {"EC50": "µM"}, "values": [{"compound": "O=C(N[C@@H]1CCc2ccccc2C1)c1cc2sccc2nc1C(F)(F)F", "note": "[Compound 47, 5-Trifluoromethyl-thieno[3,2-b]pyridine-6-carboxylic acid-N-(R)-(1,2,3,4-tetrahydro-naphthalen-2-yl)-amide]", "EC50": 35.2}, {"compound": "O=C(N[C@H]1CCc2ccccc2C1)c1ccc2[nH]nnc2c1", "note": "[Compound 26, 1H-Benzotriazole-5-carboxylic acid N-(S)-(1,2,3,4-tetrahydro-naphthalen-2-yl)-amide]", "EC50": 15.1}, {"compound": "Cc1nc2cc(C(=O)N[C@@H]3CCc4ccccc4C3)ccc2[nH]1", "note": "[Compound 52, 2-Methyl-1H-benzoimidazole-5-carboxylic acid N-(R)-(1,2,3,4-tetrahydro-naphthalen-2-yl)-amide]", "EC50": 24.4}, {"compound": "O=C(N[C@@H]1CCc2ccccc2C1)c1ccc2[nH]nnc2c1", "note": "[Compound 25, 1H-Benzotriazole-5-carboxylic acid N-(R)-(1,2,3,4-tetrahydro-naphthalen-2-yl)-amide]", "EC50": 4.55}, {"compound": "O=C(N[C@H]1CCc2ccccc2C1)c1ccncc1", "note": "[Compound 69, (S)-N-(1,2,3,4-Tetrahydro-naphthalen-2-yl)-isonicotinamide]", "EC50": 0.19}, {"compound": "O=C(N[C@@H]1CCc2ccccc2C1)c1cncc(-c2cccs2)c1", "note": "[Compound 62, N-(R)-1,2,3,4-Tetrahydro-naphthalen-2-yl-5-thiophen-2-yl-nicotinamide]", "EC50": 4.47}]}]}
